Assay results published in paper PMC11111955, “Safety and efficacy evaluation of halicin as an effective drug for inhibiting intestinal infections” (Frontiers in Pharmacology, 2024).
≈ marks a conversion by molar mass, not a printed value. Entries after “also recorded” stand apart in the source; their conditions may differ. Like-named read-outs stand apart in the source and are kept apart here.

Key:
[1] = tested on: ICR mice; test: Acute oral toxicity test in ICR mice
[2] = tested on: B. subtilis (ATCC 66333); test: Minimum inhibitory concentration (MIC); format: cell-based, Bacillus subtilis
Experimental: (§1) The test strains were inoculated on the corresponding solid medium and incubated overnight at 37°C. A single colony was picked from the medium and inoculated into Luria Broth (LB), and then incubated overnight at 37°C with shaking at 220 rpm. The bacterial suspension was diluted to 0.5 McFarland turbidity with Mueller Hinton broth (MHB), and then dilute 100 times for later use. Halicin was added to the 96-well plate, and diluted it to concentrations of 128, 64, 32, 16, 8, 4, 2, 1, 0.5, 0.25, 0.125, and 0 μg/mL by gradient. The 96-well plate was incubated at 37°C for 16 h, followed by observing and recording the results. The MIC was determined as the concentration at which there was no visible colony growth was observed.

[3] = tested on: Klebsiella pneumoniae (ATCC 4352); test: Growth kinetics curve; format: cell-based; conditions: 1/2 × to 4 × MIC
[4] = Pharmacokinetics of halicin in rat (oral)
[5] = tested on: other bacteria (except Bacillus subtilis and Pseudomonas aeruginosa); test: MIC, panel of Table 1 as summarised in the text; format: cell-based; conditions: bacteria of Table 1 except Bacillus subtilis and Pseudomonas aeruginosa
[6] = tested on: Proteus (CMCC (B) 49027); test: Growth kinetics curve; format: cell-based; conditions: 1/2 × to 4 × MIC
[7] = tested on: Salmonella (CVCC 3377); test: Growth kinetics curve; conditions: 1/2 × to 4 × MIC
[8] = tested on: E. faecalis (ATCC 29212); test: Minimum inhibitory concentration (MIC); format: cell-based, Enterococcus faecalis
Experimental: as §1

[9] = tested on: S. aureus (ATCC 29213); test: Multipassage resistance study (continuous induction); conditions: after 90 days of continuous exposure to 0.5 × MIC
[10] = tested on: S. aureus (ATCC 29213); test: Growth kinetics curve; format: cell-based, Staphylococcus aureus
[11] = tested on: S. pneumoniae (ATCC 49619); test: Minimum inhibitory concentration (MIC); format: cell-based, Streptococcus pneumoniae
Experimental: as §1

[12] = tested on: C. perfringens (ATCC 13124); format: cell-based, Clostridium perfringens
[13] = tested on: clinical isolates of E. coli strains; test: MIC against clinical isolates; format: cell-based, Escherichia coli
[14] = tested on: Salmonella typhimurium strains TA97, TA98, TA100, and WP2uvrApKM101; test: Ames test, all strains as summarised in the text
[15] = tested on: Escherichia coli (ATCC 25922); test: Growth kinetics curve; format: cell-based
[16] = tested on: MRSA (ATCC 43300); test: Minimum inhibitory concentration (MIC); format: cell-based, Staphylococcus aureus
[17] = tested on: rats; test: 90-Day subchronic toxicity assay
[18] = tested on: P. aeruginosa (ATCC 27853); test: Minimum inhibitory concentration (MIC); format: cell-based, Pseudomonas aeruginosa
Experimental: as §1

[19] = tested on: Salmonella (CVCC 3377); test: Minimum inhibitory concentration (MIC); format: cell-based
[20] = tested on: Proteus (CMCC (B) 49027); test: Minimum inhibitory concentration (MIC); format: cell-based
Experimental: as §1

[21] = tested on: Streptococcus suis (ATCC 43765); test: Minimum inhibitory concentration (MIC); format: cell-based
Experimental: as §1

[22] = tested on: H. parasuis (ATCC 19417); test: Minimum inhibitory concentration (MIC); format: cell-based
Experimental: as §1

[23] = tested on: S. flexneri (CMCC 51572); test: Minimum inhibitory concentration (MIC); format: cell-based
Experimental: as §1

Q: Which mortality ([1]; 500 mg/kg oral) does the source give for `Nc1nnc(Sc2ncc([N+](=O)[O-])s2)s1` [halicin] here?
A: none died

Q: What about the “survival rate at 7 days” value ([1]; 1,000 mg/kg oral) of the same compound?
A: 80%

Q: What about the 7-day survival rate ([1]; 4,000 mg/kg oral) of the same compound?
A: 10%

Q: What about the LD50 ([1]; ICR mice, oral gavage, 7 days observation) of the same compound?
A: 2018.3 mg/kg

Q: And the acute toxicity classification ([1]; based on LD50)?
A: low-toxicity compound

Q: What about the MIC [2] of the same compound?
A: 128 µg/mL (≈ 490 µM)

Q: And the “growth in growth kinetics curve assay” value [3]?
A: completely inhibited

Q: What about the “AUC0-last” value ([4]; High dose (50 mg/kg)) of the same compound?
A: 459.58 ± 34.53 ng·h/mL

Q: What about the “AUC0-∞” value ([4]; High dose (50 mg/kg)) of the same compound?
A: 510.86 ± 46.62 ng·h/mL

Q: What about the “Cl/F” value ([4]; High dose (50 mg/kg)) of the same compound?
A: 983.0528 ± 117.355 mL/min/kg

Q: What about the “Cmax” value ([4]; High dose (50 mg/kg)) of the same compound?
A: 64.25 ± 1.98 ng/mL

Q: What about the “MRTlast” value ([4]; High dose (50 mg/kg)) of the same compound?
A: 5.85 ± 0.13 h

Q: And the “T1/2λz” value ([4]; High dose (50 mg/kg))?
A: 8.57 ± 0.22 h

Q: What about the “Tmax” value ([4]; High dose (50 mg/kg)) of the same compound?
A: 1.33 ± 1.41 h

Q: What about the “Vd/F” value ([4]; High dose (50 mg/kg)) of the same compound?
A: 828.26908 ± 70.84029 L/kg

Q: And the “λz” value ([4]; High dose (50 mg/kg))?
A: 0.085 ± 0.0016 h⁻¹

Q: And the “AUC0-last” value ([4]; Low dose (10 mg/kg))?
A: 318.05 ± 31.27 ng·h/mL

Q: What about the “AUC0-∞” value ([4]; Low dose (10 mg/kg)) of the same compound?
A: 395.88 ± 42.41 ng·h/mL

Q: What about the “Cl/F” value ([4]; Low dose (10 mg/kg)) of the same compound?
A: 422.673 ± 44.3642 mL/min/kg

Q: And the “Cmax” value ([4]; Low dose (10 mg/kg))?
A: 40.99 ± 2.37 ng/mL

Q: What about the “MRTlast” value ([4]; Low dose (10 mg/kg)) of the same compound?
A: 7.58 ± 0.41 h

Q: And the “T1/2λz” value ([4]; Low dose (10 mg/kg))?
A: 10.32 ± 2.22 h

Q: What about the “Tmax” value ([4]; Low dose (10 mg/kg)) of the same compound?
A: 1.33 ± 1.41 h

Q: And the “Vd/F” value ([4]; Low dose (10 mg/kg))?
A: 375.07455 ± 41.94437 L/kg

Q: What about the “λz” value ([4]; Low dose (10 mg/kg)) of the same compound?
A: 0.068 ± 0.016 h⁻¹

Q: What about the “drug concentration in the blood” value ([4]; at 24 h after drug administration) of the same compound?
A: ≤ 5 ng/mL

Q: And the “absorption and elimination in vivo” value ([4]; drug metabolism experiments)?
A: poorly absorbed and quickly eliminated

Q: What about the “MIC against other bacteria” value [5] of the same compound?
A: less than 8 μg/mL

Q: What about the “growth in growth kinetics curve assay” value [6] of the same compound?
A: completely inhibited

Q: And the “growth in growth kinetics curve assay” value [7]?
A: completely inhibited

Q: What about the MIC [8] of the same compound?
A: 4 µg/mL (≈ 15.3 µM)

Q: What about the “MIC of SAR (S. aureus ATCC 29213 resistant strains)” value [9] of the same compound?
A: 64 µg/mL

Q: What about the “growth in growth kinetics curve assay” value ([10]; 1 × MIC) of the same compound?
A: started to grow rapidly after 16 h

Q: What about the “growth in growth kinetics curve assay” value ([10]; 4 × MIC, after 20 h) of the same compound?
A: still proliferated significantly

Q: And the “type of antibacterial action” value ([10]; against S. aureus)?
A: bacteriostatic rather than a bactericidal agent

Q: What about the MIC [11] of the same compound?
A: 0.5 µg/mL (≈ 1.91 µM)

Q: And the MIC [12]?
A: 8 µg/mL (≈ 30.6 µM)

Q: And the MIC [13]?
A: 8 µg/mL (≈ 30.6 µM)

Q: And the MIC ([13]; clinical isolate S015, Escherichia coli 1505)?
A: 16 µg/mL (≈ 61.2 µM)

Q: What about the MIC ([13]; clinical isolate S016, Escherichia coli 2101) of the same compound?
A: 16 µg/mL (≈ 61.2 µM)

Q: What about the MIC ([13]; clinical isolate S017, Escherichia coli 1104) of the same compound?
A: 16 µg/mL (≈ 61.2 µM)

Q: What about the MIC ([13]; clinical isolate S018, Escherichia coli 1103) of the same compound?
A: 16 µg/mL (≈ 61.2 µM)

Q: What about the MIC ([13]; clinical isolate S019, Escherichia coli 1102) of the same compound?
A: 16 µg/mL (≈ 61.2 µM)

Q: And the MIC ([13]; clinical isolate S020, Escherichia coli 1204)?
A: 16 µg/mL (≈ 61.2 µM)

Q: What about the MIC ([13]; clinical isolate S021, Escherichia coli 1508) of the same compound?
A: 16 µg/mL (≈ 61.2 µM)

Q: What about the MIC ([13]; clinical isolate S022, Escherichia coli 1302) of the same compound?
A: 16 µg/mL (≈ 61.2 µM)

Q: And the MIC ([13]; clinical isolate S023, Escherichia coli 1301)?
A: 16 µg/mL (≈ 61.2 µM)

Q: And the MIC ([13]; clinical isolate S024, Escherichia coli 1213)?
A: 16 µg/mL (≈ 61.2 µM)

Q: And the MIC ([13]; clinical isolate S025, Escherichia coli 1111)?
A: 8 µg/mL (≈ 30.6 µM)

Q: And the MIC ([13]; clinical isolate S026, Escherichia coli 1123)?
A: 8 µg/mL (≈ 30.6 µM)

Q: What about the MIC ([13]; clinical isolate S034, Escherichia coli 1115) of the same compound?
A: 8 µg/mL (≈ 30.6 µM)

Q: And the MIC ([13]; clinical isolate S035, Escherichia coli 1114)?
A: 8 µg/mL (≈ 30.6 µM)

Q: And the MIC ([13]; clinical isolate S036, Escherichia coli 1113)?
A: 8 µg/mL (≈ 30.6 µM)

Q: And the MIC ([13]; clinical isolate S037, Escherichia coli 1110)?
A: 8 µg/mL (≈ 30.6 µM)

Q: And the MIC ([13]; clinical isolate S038, Escherichia coli 1108)?
A: 8 µg/mL (≈ 30.6 µM)

Q: And the MIC ([13]; clinical isolate S039, Escherichia coli 1105)?
A: 8 µg/mL (≈ 30.6 µM)

Q: What about the MIC ([13]; clinical isolate S040, Escherichia coli 230202) of the same compound?
A: 8 µg/mL (≈ 30.6 µM)

Q: What about the MIC ([13]; clinical isolate S041, Escherichia coli 230203) of the same compound?
A: 8 µg/mL (≈ 30.6 µM)

Q: What about the MIC ([13]; clinical isolate S042, Escherichia coli 230210) of the same compound?
A: 8 µg/mL (≈ 30.6 µM)

Q: What about the MIC ([13]; clinical isolate S043, Escherichia coli 0807) of the same compound?
A: 32 µg/mL (≈ 122 µM)

Q: What about the MIC ([13]; clinical isolate S044, Escherichia coli 1122) of the same compound?
A: 4 µg/mL (≈ 15.3 µM)

Q: What about the MIC ([13]; clinical isolate S045, Escherichia coli 0906) of the same compound?
A: 4 µg/mL (≈ 15.3 µM)

Q: And the MIC ([13]; clinical isolate S046, Escherichia coli 0813)?
A: 4 µg/mL (≈ 15.3 µM)

Q: What about the MIC ([13]; clinical isolate S047, Escherichia coli 230209) of the same compound?
A: 4 µg/mL (≈ 15.3 µM)

Q: What about the MIC ([13]; clinical isolate S048, Escherichia coli 230211) of the same compound?
A: 4 µg/mL (≈ 15.3 µM)

Q: What about the “bacterial counts of the four strains” value ([14]; 22.5 μg/plate, due to antibacterial effect) of the same compound?
A: significantly decreased

Q: What about the “mutagenicity in the Ames test” value ([14]; concentrations below 11.2 μg/plate, with or without S9) of the same compound?
A: non-mutagenic

Q: What about the “growth in growth kinetics curve assay” value ([15]; 1/2 × MIC, E. coli (ATCC 25922)) of the same compound?
A: significantly inhibited during the initial 16 h

Q: And the “growth in growth kinetics curve assay” value ([15]; 4 × MIC, after 20 h)?
A: still proliferated significantly

Q: And the MIC [16]?
A: 8 µg/mL (≈ 30.6 µM)

Q: What about the “water consumption and mental states” value ([17]; all dosage groups) of the same compound?
A: no significant changes

Q: What about the “body weight of female rats compared with the control group” value ([17]; all halicin treatment groups, 90 days, p > 0.05) of the same compound?
A: no significant difference

Q: And the mortality ([17]; any experimental group (50.5-201.8 mg/kg), 90 days)?
A: No mortality

Q: What about the “weight of organs compared with the control group” value ([17]; end of the experiment, all treatment groups, p > 0.05) of the same compound?
A: no significant difference

Q: What about the maximum safe concentration ([17]; from the safety assessment) of the same compound?
A: 50.5 mg/kg

Q: What about the “kidney findings (autopsy, HE sections)” value ([17]; high dose 201.8 mg/kg, 201.8 mg/kg) of the same compound?
A: slight renal inflammation; also recorded: kidney lesions

Q: What about the “body weight of male rats compared with the control group” value ([17]; high-dose group (201.8 mg/kg), oral, 90 days, p < 0.05) of the same compound?
A: significantly lower

Q: What about the “serum ALT and AST levels compared with the control group” value ([17]; high-dose, p < 0.01) of the same compound?
A: significantly reduced

Q: And the “diet compared with the control group” value ([17]; low-dose group (50.5 mg/kg), p > 0.05)?
A: No significant differences

Q: What about the “dosages with good safety and tolerability” value ([17]; rats, oral, 90 days) of the same compound?
A: below 50.5 mg/kg

Q: What about the MIC [18] of the same compound?
A: 64 µg/mL (≈ 245 µM)

Q: And the MIC [19]?
A: 8 µg/mL (≈ 30.6 µM)

Q: What about the MIC [20] of the same compound?
A: 8 µg/mL (≈ 30.6 µM)

Q: What about the MIC [21] of the same compound?
A: 4 µg/mL (≈ 15.3 µM)

Q: What about the MIC [22] of the same compound?
A: 8 µg/mL (≈ 30.6 µM)

Q: And the MIC [23]?
A: 8 µg/mL (≈ 30.6 µM)
